Earlier results, collected in patent publication US20230372346A1, “TREATMENT REGIMENS FOR EXON-20 INSERTION MUTANT EGFR CANCERS” (CULLINAN PEARL CORP., priority 2020, published 2023).

Conditions: human, in vivo; cited from earlier work

## C=CC(=O)Nc1cc(Nc2ncc(C(=O)OC(C)C)c(-c3cn(C)c4ccccc34)n2)c(OC)cc1N(C)CCN(C)C [TAK-788, mobocertinib]
  toxicity in the lowest-dose cohort where stable diseases or partial responses were observed: presented both grade 3 or above TRAEs and dose-limiting toxicities
